{"source": "paper PMC4926252", "about": "(Scientific Reports, 2016)", "key": {"CtpH-LBD [1]": {"target": "T1, CtpH-LBD (Pseudomonas aeruginosa, UniProt G3XDA3)", "assay": "biochemical", "type": "binding", "details": "for binding: titrated with 5 mM ligand"}, "PstS": {"target": "PstS (Pseudomonas aeruginosa, UniProt G3XDA8)", "assay": "biochemical", "type": "binding", "details": "for ΔH: 25 °C, unfolded/refolded PstS, 10 mM Tris/HCl pH 8.0"}, "CtpL-LBD": {"target": "CtpL-LBD (Pseudomonas aeruginosa, UniProt Q9HUW6)", "details": "ITC", "procedure": "E. coli BL21 (DE3) containing the expression plasmids were cultured in LB medium supplemented with 50 μg ml^−1 kanamycin at 30 °C until an OD660 of 0.6, at which point 0.1 mM IPTG was added. […] Pellets were resuspended in buffer A (30 mM Tris, 300 mM NaCl, 10 mM imidazole, 5% (v/v) glycerol, pH 7.0) and broken by French press at 1000 psi. […] Protein was diluted to 10 μM and refolded by two consecutive dialyses into 10 mM Tris/HCl, pH 8.0. Aggregated protein corresponding to misfolded species was removed by filtration using 0.22 μm cut-off filters.\nThe mean enthalpies from the injection of ligands into buffer were subtracted from titration data prior to analysis with the “One binding site model” of ORIGIN following the algorithm described in[51]."}, "CtpH-LBD [2]": {"target": "T1, CtpH-LBD", "details": "CtpH-LBD (51 μM) saturated with 5 mM Pi"}, "CtpH-LBD [3]": {"target": "T1, CtpH-LBD", "details": "sedimentation velocity and equilibrium, with and without Pi"}, "P. aeruginosa PAO1 [4]": {"test_system": "P. aeruginosa PAO1"}, "P. aeruginosa PAO1 [5]": {"test_system": "P. aeruginosa PAO1", "details": "cited from earlier work"}, "G3XDA3 [6]": {"target": "G3XDA3", "assay": "AUC; sedimentation velocity of CtpH-LBD in the presence of 500 uM Pi; 45,000 rpm, 6 °C, polybuffer"}, "G3XDA3 [7]": {"target": "G3XDA3", "assay": "AUC; sedimentation equilibrium of CtpH-LBD in the presence of Pi; 11,800, 18,100 and 31,000 rpm, 6 °C, polybuffer"}, "[8]": {"target": "T2, PstS (PA5369), periplasmic phosphate-binding protein, recombinant (P. aeruginosa, UniProt G3XDA8 25-323)", "T2 construct": "also called Pi-loaded PstS; source: E. coli BL21 (DE3), overexpressed, purified (HisTrap)", "T2 sequence": "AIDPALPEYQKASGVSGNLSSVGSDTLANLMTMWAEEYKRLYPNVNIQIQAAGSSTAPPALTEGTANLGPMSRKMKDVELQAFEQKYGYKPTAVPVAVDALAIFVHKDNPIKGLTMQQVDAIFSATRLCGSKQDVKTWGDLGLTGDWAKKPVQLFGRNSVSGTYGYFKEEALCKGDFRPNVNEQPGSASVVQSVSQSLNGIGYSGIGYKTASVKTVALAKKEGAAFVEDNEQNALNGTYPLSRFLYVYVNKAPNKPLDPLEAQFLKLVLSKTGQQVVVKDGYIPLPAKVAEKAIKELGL", "assay": "AUC; sedimentation velocity, 45,000 rpm, 6 °C, polybuffer; CtpL-LBD and PstS individually and as a mixture; c(s) method", "details": "both partners purified"}, "[9]": {"target": "T2, PstS (PA5369), periplasmic …", "assay": "ITC; 5 uM Pi-loaded PstS in the cell titrated with 80 uM CtpL-LBD; 25 °C; one binding site model; means of three experiments", "details": "both partners purified"}}, "note": "Read-outs that look alike come from different tables or passages of the source.", "data": [{"molecule": "O=CC(O)COP(=O)(O)O", "note": "(racemic) [DL-glyceraldehyde 3-phosphate]", "values": [{"measurement": "KD", "setting": "CtpH-LBD [1]; pH 7", "result": "No binding"}]}, {"molecule": "O=C(O)[C@H](O)[C@@H](O)[C@H](O)[C@H](O)COP(=O)(O)O", "note": "[6-phosphogluconate]", "values": [{"measurement": "KD", "setting": "CtpH-LBD [1]; pH 7", "result": "No binding"}]}, {"molecule": "Nc1ncnc2c1ncn2[C@@H]1O[C@H](COP(=O)(O)OP(=O)(O)O)[C@@H](O)[C@H]1O", "note": "[ADP]", "values": [{"measurement": "Kd", "setting": "CtpH-LBD [1]", "result": "103 ± 21", "unit": "µM"}, {"measurement": "ΔH", "setting": "CtpH-LBD [1]; pH 7", "result": "-2.7 ± 1", "unit": "kcal/mol"}]}, {"molecule": "Nc1ncnc2c1ncn2[C@@H]1O[C@H](COP(=O)(O)O)[C@@H](O)[C@H]1O", "note": "[AMP]", "values": [{"measurement": "KD", "setting": "CtpH-LBD [1]; pH 7", "result": "No binding"}]}, {"molecule": "Nc1ncnc2c1ncn2[C@@H]1O[C@H](COP(=O)(O)OP(=O)(O)OP(=O)(O)O)[C@@H](O)[C@H]1O", "note": "[ATP]", "values": [{"measurement": "KD", "setting": "CtpH-LBD [1]; pH 7", "result": "Binding ^1"}, {"measurement": "Kd", "setting": "PstS", "result": "0.3 ± 0.1", "unit": "µM"}, {"measurement": "ΔH", "setting": "PstS; ITC", "result": "-2.9 ± 0.1", "unit": "kcal/mol"}]}, {"molecule": "O=C(CO)[C@@H](O)[C@H](O)[C@H](O)COP(=O)(O)O", "note": "[D-fructose 6-phosphate]", "values": [{"measurement": "KD", "setting": "CtpH-LBD [1]; pH 7", "result": "No binding"}]}, {"molecule": "O=C[C@H](O)[C@@H](O)[C@H](O)[C@H](O)COP(=O)(O)O", "note": "[D-glucose 6-phosphate]", "values": [{"measurement": "KD", "setting": "CtpH-LBD [1]; pH 7", "result": "No binding"}]}, {"molecule": "O=P(O)(O)O", "note": "[Pi, K2HPO4]", "values": [{"measurement": "Kd", "setting": "PstS", "result": "0.007 ± 0.001", "unit": "µM"}, {"measurement": "ΔH", "setting": "PstS; ITC", "result": "-5.1 ± 0.1", "unit": "kcal/mol"}, {"measurement": "binding", "setting": "PstS; ITC, PstS as purified from E. coli, before unfolding/refolding", "result": "no binding"}, {"measurement": "TΔS", "setting": "PstS; ITC, refolded PstS", "result": "6.0 ± 0.1", "unit": "kcal/mol"}, {"measurement": "n-value", "setting": "PstS; ITC, refolded PstS", "result": "0.29 ± 0.02"}, {"measurement": "binding", "setting": "CtpL-LBD; CtpL-LBD denatured, dialyzed and refolded", "result": "did not show any Pi binding"}, {"measurement": "KD", "setting": "CtpL-LBD; conducted at different temperatures", "result": "No binding"}, {"measurement": "ΔH of unfolding", "setting": "CtpH-LBD [2]; without Pi 28.2 kcal/mol", "result": "39.9 + /−1.5 kcal/mol"}, {"measurement": "Tm", "setting": "CtpH-LBD [2]; without Pi 46.9 °C", "result": "56.6 + /−0.2 °C"}, {"measurement": "effect on oligomeric state of CtpH-LBD", "setting": "CtpH-LBD [3]", "result": "causes CtpH-LBD dimerization"}, {"measurement": "chemotaxis", "setting": "P. aeruginosa PAO1 [4]; ctpH mutant, 0.01 mM Pi", "result": "no significant changes"}, {"measurement": "chemotaxis", "setting": "P. aeruginosa PAO1 [4]; ctpH mutant, 0.1 and 10 mM Pi", "result": "compromised chemotaxis"}, {"measurement": "chemotaxis", "setting": "P. aeruginosa PAO1 [4]; pstS deletion mutant, low Pi (0.01 and 0.1 mM)", "result": "dramatically reduced chemotaxis"}, {"measurement": "chemotaxis", "setting": "P. aeruginosa PAO1 [4]; pstS mutant, high Pi (10 mM)", "result": "did not greatly affect chemotaxis"}, {"measurement": "chemotaxis", "setting": "P. aeruginosa PAO1 [4]; pstS/ctpH double mutant", "result": "only very marginal Pi chemotaxis"}]}, {"molecule": "O=[As](O)(O)O", "note": "[arsenate]", "values": [{"measurement": "KD", "setting": "CtpH-LBD [1]; ITC, 25 °C, polybuffer pH 7.0", "result": "No binding"}, {"measurement": "binding", "setting": "CtpH-LBD [1]; ITC", "result": "did not bind"}, {"measurement": "chemotaxis", "setting": "P. aeruginosa PAO1 [5]; Pi starved cells", "result": "attracted to arsenate"}]}, {"molecule": "O=[As][O-].[Na+]", "note": "[arsenite]", "values": [{"measurement": "KD", "setting": "CtpH-LBD [1]; ITC, 25 °C, polybuffer pH 7.0", "result": "No binding"}, {"measurement": "binding", "setting": "CtpH-LBD [1]; ITC", "result": "did not bind"}]}, {"molecule": "C=C(OP(=O)(O)O)C(=O)O", "note": "[phosphoenolpyruvate]", "values": [{"measurement": "KD", "setting": "CtpH-LBD [1]; pH 7", "result": "No binding"}]}, {"molecule": "O=P(O)(O)OP(=O)(O)O", "note": "[pyrophosphate]", "values": [{"measurement": "Kd", "setting": "PstS", "result": "2.6 ± 0.3", "unit": "µM"}, {"measurement": "ΔH", "setting": "PstS; ITC", "result": "-8.3 ± 0.3", "unit": "kcal/mol"}, {"measurement": "chemotaxis", "setting": "P. aeruginosa PAO1 [5]; P. aeruginosa", "result": "chemotaxis towards millimolar concentrations of pyrophosphate"}]}, {"molecule": "ligand binding domain of the chemoreceptor CtpH (CtpH-LBD) (protein) GSLTGDVRAYRELLGGPVRAAQLIDEANLQFRGQVQEWKNVLLRGRQTEAQTKYWSQFEAQERAVQDILGRLGSVAEGELKDRVERLREEHRRLGTAYRQGRQRFLEAGADPIAGDQAVTGIDRATTAQMQTLRDELHQASDLHSSSISAEARRT", "values": [{"measurement": "N with Pi", "setting": "G3XDA3 [6]", "result": "dimer (39,566 Da)"}, {"measurement": "N with Pi (minor species)", "setting": "G3XDA3 [6]", "result": "tetramer (79,132 Da)"}, {"measurement": "percent of the sedimenting material in the dimer peak, with Pi", "setting": "G3XDA3 [6]", "result": "86% of the sedimentation material"}, {"measurement": "N with Pi", "setting": "G3XDA3 [7]", "result": 2}]}, {"molecule": "ligand binding domain of the chemoreceptor CtpL (CtpL-LBD) (domain or fragment, P. aeruginosa, UniProt Q9HUW6 27-324, looked up, Cloned into pET28b(+); Held on a HisTrap column as bait in the pull-down; The discussion gives 286 amino acids for CtpL-LBD, whereas 27-324 is 298 residues; also called PA4844; source: E. coli BL21 (DE3), purified (HisTrap) from the soluble fraction) WSQRAMERPFQLLDQYLELSQRFDEQVARNIRQYLGSGDAVRQQAALQALESLAEALPELPPDLARTLAPSLAELREFSAGDLLAAGKLAGDPQGLLLQAERDLTGNLEQWSAYLDAAAGQPQAGAYRTPLLLASLHLTRLSLARAKLVESANPALAGDVERELANLREQAGRIEALPLLGVLDEQRSASDDFAAMMGLAGDAEAGAGNAEDRGVALRRELASLLQRYPDELRRTRDLIERRQQLSADTGARLDAVRQALATLEPQVRGERQRLQGQVRLIQGGMIALILLIALAIDS", "values": [{"measurement": "stoichiometry N", "setting": "[8]", "result": 1}, {"measurement": "dH", "setting": "[9]", "result": -3.1, "unit": "kcal/mol"}]}]}
